Tests used:
[1] = target: Cdc7/Dbf4 (Homo sapiens, UniProt O00311); experiment: Cdc7 Biochemical Assay Method 3: Cdc7/Dbf4 Enzyme TR-FRET Assay measuring pS40MCM2; conditions: 1 μM ATP, read-out: Biochemical Method 3 (pIC50) (converted)
Procedure: This protocol describes a method for assaying a compounds' ability to inhibit Cdc7 activity by measuring pS40MCM2 levels in a Cdc7/Dbf4 Enzyme TR-FRET Assay.
2.5 nM Cdc7/Dbf4 was incubated with 100 nM of biotin-labelled peptide 35-TDALTS(pS)PGRDLP in the presence of 1 μM ATP at 25° C. for 120 minutes. The phosphorylation of the peptide was detected using TR-FRET. Anti-Mcm2 (pS40) antibody, Terbium anti-rabbit secondary antibody and Streptavidin-Alexa Fluor488 form the detection system.

[2] = test system: Cdc7 (pS40MCM2 levels in HCT116 cells); experiment: Cdc7 Cell Pharmacodynamics Assay Method 2B: pS40MCM2 levels in HCT116 cells, 18 hours; format: cell-based; conditions: Homo sapiens, HCT-116, read-out: Biomarker Method 2B (pEC50) (converted)
Excerpt: This protocol describes a method to investigate the inhibition of Cdc7 activity by measuring pS40MCM2 levels in cells, after treatment with compounds.
• HCT116 cells (ATCC, #CCL-247) • McCoys 5A with L-glutamine (Cellgro, #10-050-CV) • 10% FCS (Cellgro, #35-010-CV) • D-PBS without CaCl2 and MgCl2 (Cellgro, #21-031-CV) • Trypsin/EDTA (Cellgro, #25-052-CL) • BSA (Calbiochem, 126593) • Cell Extraction Buffer (Invitrogen FNN0011) • Protease inhibitor cocktail (Sigma P-2714) • PMSF 0.3M stock in DMSO (Sigma P7626) • Antibody-rabbit pMCM2 Ser40 (Abcam, AB133243) • Antibody-goat MCM2 (Bethyl #A300-122A) • Antibody-goat Anti Rabbit IgG HRP (Thermo, 31462) • SuperSignal ELISA Pico Chemiluminescent Substrate (Perbio Science UK Ltd 37069) • 10×PBS (Growcells, MRGF-6236) • Triton X100 (Sigma, P-T8787) • DMSO (Fisher, D128-1) • 2-Propanol (J. T. Baker, 9095-03) Method • Seed 1×10^6 HCT116 cells into each of two 175 cm^2 flask containing 30 mL Cell Growth Media and incubate at 37° C., 5% CO2 for 3 days. • Harvest the cells from one T175 cm^2 flask and count. • Dilute with Cell Growth Media to a cell density of 2×10^5. Dispense 100 μL to each well (20,000 HCT116 cells/well) of TC treated 96-well plate(s). • Allow cells to settle overnight in incubator set at 37° C. and 5% CO2. • Cell treatment: Transfer 0.25 μL/well from the compound plate to the wells of the cell plate(s). This is a 1:400 dilution of compound in the assay. • Once all cells are treated place the cells back to the incubator and incubate for either 6 hours (Method 2A) or 18 hours (Method 2B). • Dilute the capture antibody (total MCM2#A300-122A) 1 in 250 in the required volume of PBS (5 mL per assay plate, plus 5 mL for dead volume) and add 50 μL to each well of a Hybond plate except wells A12 & B12. Seal the plate and incubate at room temperature for a minimum of 2 hours. • Defrost aliquot of Invitrogen Cell Extraction Buffer (FNN0011) on ice and supplement with appropriate volume of both Sigma protease inhibitor cocktail (P-2714) and PMSF (final conc 1 mM from a 1 M stock in DMSO). • After the 6 hour or 18 hour cell treatment time, tap out the media from the assay plates and place them in the −70° C. freezer for at least 5 minutes. • Flick out the remaining liquid in the previously prepared capture Ab plate(s) and add 200 μL 2% BSA per well. Incubate for 1 hour at room temperature. • Remove plates from freezer and add 20 μL of ice cold complete lysis buffer. Incubate cells for 30 minutes at 4° C. • Add 30 μL per well 2% BSA • At the end of the 1 hour incubation, wash the Capture/ELISA plate(s) with Wash Buffer on the BioTek plate washer. • Transfer 40 μL per well of the lysis plate(s) to the same wells in the Capture/ELISA plate. Incubate cells overnight at 4° C. • At the end of the overnight incubation, wash the ELISA plate(s) with Wash Buffer on BioTek plate washer. • Prepare Detection Antibody Buffer and dispense 50 μL to all wells of ELISA plate(s) except wells G1 & H1. Cover plate and incubate at room temperature for 2 hours with gentle shaking. • At the end of the 2 hour incubation, wash the ELISA plate(s) with Wash Buffer on the BioTek plate washer. • Prepare the Conjugated Antibody Buffer and dispense 50 μL to all wells of ELISA plate(s). • Cover the plate and incubate at room temperature for 1 hour with gentle shaking. • At the end of the 1 hour incubation, wash the ELISA plate(s) with Wash Buffer on the BioTek plate washer. • Prepare Substrate Buffer and dispense 50 μL to all wells of ELISA plate(s). • Incubate for a minimum of 10 minutes and read plates on the EnVision 2100 Multilabel Reader (Mirror: Luminescence (404) & Luminescence 700 (212); Measurement Height: 6.5 mm; Measurement Time: 0.2 s). Method 3

[3] = test system: Cdc7 (pS53MCM2 levels in HCT116 cells); experiment: Cdc7 Cell Pharmacodynamics Assay Method 1: pS53MCM2 levels in HCT116 cells, 6 hours; format: cell-based; conditions: Homo sapiens, HCT-116, 6 h, read-out: Biomarker Method 1 (pEC50) (converted)
Excerpt: This protocol describes a method to investigate the inhibition of Cdc7 activity of compounds by measuring pS53MCM2 levels in cells after treatment.
• HCT116 cells (wild type P53 positive) • McCoys 5A media (PAA Laboratories Ltd, E15-022) • 10% FCS (Sera Laboratories International Ltd, EU000F Batch:108005) • 100× L-Glutamine (Invitrogen, 25030-024) • D-PBS without CaCl2 and MgCl2 (Invitrogen, ref 14190-094) • Trypsin/EDTA (Invitrogen 25300-054) • 2% BSA in PBS • Cell Extraction Buffer (Invitrogen FNN0011) • Protease inhibitor cocktail (Sigma P-2714) • PMSF 0.3M stock in DMSO (Sigma P7626) • Antibody-rabbit pMCM2 Ser53 (Bethyl #A300-756A) • Antibody-goat MCM2 (Bethyl #A300-122A) • Antibody-goat Anti Rabbit IgG HRP (Perbio Science UK Ltd 31462) • 1×PBS • FACE Wash buffer (0.02% Triton X100 in 1×PBS) • SuperSignal ELISA Pico Chemiluminescent Substrate (Perbio Science UK Ltd 37070) Method • 72 hours prior to the start of the experiment plate 1×10^6 HCT 116 cells in a 150 cm^2 flask in complete McCoys 5A media (+10% FCS+1× L-glutamine). • Plate 20,000 HCT116 cells per well in standard TC treated 96 well plate in 100 μL complete McCoys 5A media. • Allow cells to settle overnight in incubator set at 37° C. and 5% CO2. • Remove intermediate plate from fridge and place at 37° C. overnight to allow to equilibrate. • Cell treatment: cell assay plate 100 μL; daughter to cell transfer volume 3.33 μL; daughter volume 45 μL; mother plate to daughter volume 5 μL. • Once all cells are treated remove the cells to the incubator and incubate for 6 hours. • Dilute the capture antibody (total MCM2#A300-122A) 1 in 250 in the required volume of PBS (5 mL per assay plate) and add 50 μL to each well of a Hybond plate excluding wells 12E to 12H. In these wells add 50 μL PBS. Seal the plate and incubate at room temperature for a minimum of 2 hours. • Defrost aliquot of Invitrogen Cell Extraction Buffer (FNN0011) on ice and supplement with appropriate volume of both Sigma protease inhibitor cocktail (P-2714) and PMSF (final conc 1 mM from a 1 M stock in DMSO). • After the 6 hour cell treatment time tap out the media from the assay plates and place them in the −70° C. freezer for at least 5 minutes. • Remove plates from freezer and add 20 μL of ice cold complete lysis buffer on ice. Incubate cells for 30 minutes at 4° C. • Add 80 μL per well 2% BSA. • Transfer 80 μL from the lysis plate to the same wells in the capture/ELISA plate. Cover with plate seal and incubate plates overnight at 4° C. • Wash plates with PBS, remove any residual remaining liquid and add 50 μL per well of pMCM2 Ser53 antibody (#A300-756A) diluted 1 in 100 in 2% BSA. Cover plate and incubate at room temperature for 2 hours with gentle shaking. • Wash plates with PBS, remove any residual remaining liquid and Incubate with 50 μL goat anti rabbit antibody (1 in 800 dilution in 2% BSA) for 1 hour at room temperature. • Wash plates with PBS, remove any residual remaining liquid and add 50 μL mixed SuperSignal Pico substrate. • Incubate each plate for 5 minutes at room temperature shielding the plates from direct light (with a cover plate). Read plates with the luminescent detection. Method 2A and 2B

[4] = target: Cdc7/ASK (Homo sapiens, UniProt O00311); experiment: Cdc7 Biochemical Assay Method 1: 384 well ELISA, whole protein substrate MCM2, antibody against Phospho MCM2 (S53); set-up: purchased; conditions: 2 μM ATP, read-out: Biochemical Method 1 (pIC50) (converted)
Outline: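 MCM2 protein substrate was coated on nickel-chelate plates, then Cdc7/ASK was added with 2 μM ATP in 50 mM Tris-HCl pH 8.5, 10 mM MgCl2, 1 mM DTT, 4% DMSO, 90 min at room temperature. Phospho-MCM2 (S53) was detected by ELISA with an AP secondary and PNPP absorbance. IC50 was derived from % inhibition versus no-compound and no-enzyme controls.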

Chain of Cdc7/Dbf4 (O00311 whole entry): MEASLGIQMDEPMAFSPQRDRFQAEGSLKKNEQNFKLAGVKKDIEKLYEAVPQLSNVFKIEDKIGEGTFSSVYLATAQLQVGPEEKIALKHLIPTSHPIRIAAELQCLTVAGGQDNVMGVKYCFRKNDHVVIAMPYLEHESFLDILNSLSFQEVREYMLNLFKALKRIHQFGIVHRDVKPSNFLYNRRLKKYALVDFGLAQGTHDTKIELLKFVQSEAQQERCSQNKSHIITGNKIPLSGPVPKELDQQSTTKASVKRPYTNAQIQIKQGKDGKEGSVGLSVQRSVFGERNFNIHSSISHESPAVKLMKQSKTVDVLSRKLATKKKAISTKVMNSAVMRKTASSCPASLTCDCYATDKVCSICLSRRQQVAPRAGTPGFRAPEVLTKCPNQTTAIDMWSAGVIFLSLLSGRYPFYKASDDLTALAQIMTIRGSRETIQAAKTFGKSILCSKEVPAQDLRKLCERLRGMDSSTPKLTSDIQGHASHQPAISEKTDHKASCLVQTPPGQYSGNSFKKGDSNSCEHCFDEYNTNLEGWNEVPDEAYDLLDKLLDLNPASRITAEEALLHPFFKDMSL
Chain of Cdc7/Dbf4 (Q9UBU7 whole entry partner): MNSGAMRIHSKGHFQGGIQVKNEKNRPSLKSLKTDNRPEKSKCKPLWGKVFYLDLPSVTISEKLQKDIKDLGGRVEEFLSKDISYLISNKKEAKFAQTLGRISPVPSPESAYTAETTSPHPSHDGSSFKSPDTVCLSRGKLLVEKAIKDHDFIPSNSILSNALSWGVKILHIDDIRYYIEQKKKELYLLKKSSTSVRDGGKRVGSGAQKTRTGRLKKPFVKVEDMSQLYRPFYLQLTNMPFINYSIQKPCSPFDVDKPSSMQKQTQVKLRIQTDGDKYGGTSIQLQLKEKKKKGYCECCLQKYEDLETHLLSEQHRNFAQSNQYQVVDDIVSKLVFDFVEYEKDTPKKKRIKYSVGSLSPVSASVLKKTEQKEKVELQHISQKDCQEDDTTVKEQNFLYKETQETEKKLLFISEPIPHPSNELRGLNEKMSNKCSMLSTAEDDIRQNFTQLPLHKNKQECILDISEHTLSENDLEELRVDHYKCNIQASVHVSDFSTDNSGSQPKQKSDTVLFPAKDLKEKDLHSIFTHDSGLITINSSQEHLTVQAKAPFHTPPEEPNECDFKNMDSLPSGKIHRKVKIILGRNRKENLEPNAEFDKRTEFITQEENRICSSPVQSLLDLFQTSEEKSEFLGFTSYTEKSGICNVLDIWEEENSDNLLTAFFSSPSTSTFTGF
Chain of Cdc7/ASK (O00311 whole entry): as the sequence (O00311 whole entry) above
Chain of Cdc7/ASK (Q9UBU7 whole entry partner): as the sequence (Q9UBU7 whole entry partner) above

IC50 [1] [nM] | EC50 [2] [nM] | EC50 [3] [nM] | IC50 [4] [nM] | SMILES
2.09 | 126 |  |  | CC1CCN(c2nc(-c3ccnc(F)c3)[nH]c(=O)c2Cl)CCN1 (centres unmarked) [Compound 303]
1.29 | 1740 |  |  | N#C[C@@H]1CNCCN1c1nc(-c2ccnc(F)c2)[nH]c(=O)c1Cl [Compound 345]
3.02 | 115 |  |  | CC1(C)CN(c2nc(-c3ccnc(F)c3)[nH]c(=O)c2Cl)CCO1 [Compound 300]
0.832 | 562 |  |  | O=c1[nH]c(-c2ccnc(F)c2)nc(N2CCCC3(CCNC3)C2)c1Cl (centres unmarked) [Compound 258]
2.19 | 155 |  |  | O=c1[nH]c(-c2ccnc(F)c2)nc(N2CCN(CC(F)F)CC2)c1Cl [Compound 350]
10.5 | 1910 |  |  | CC1(C)CN(c2nc(-c3ccnc(F)c3)[nH]c(=O)c2Cl)CCCO1 [Compound 301]
1.38 | 214 |  |  | CC1(F)CNCCN(c2nc(-c3ccnc(F)c3)[nH]c(=O)c2Cl)C1 (centres unmarked) [Compound 304]
2.51 | 174 |  |  | CC1CN(c2nc(-c3ccnc(F)c3)[nH]c(=O)c2Cl)C(C)CO1 (centres unmarked) [Compound 340]
2.09 | 389 |  |  | O=c1[nH]c(-c2ccnc(F)c2)nc(N2CCC3(COC3)C2)c1Cl [Compound 284]
5.5 | 501 |  |  | CN(C)[C@H]1CCN(c2nc(-c3ccnc(F)c3)[nH]c(=O)c2Cl)C1 [Compound 272]
4.37 | 398 |  |  | O=c1[nH]c(-c2ccnc(F)c2)nc(N2CCC(N3CCOCC3)CC2)c1Cl [Compound 244]
4.17 | 813 |  |  | C[C@@H]1CN(c2nc(-c3ccnc(F)c3)[nH]c(=O)c2Cl)C[C@H](C)O1 [Compound 201]
 |  | 132 | 2.4 | C[C@H]1CN(c2nc(-c3ccncc3)[nH]c(=O)c2Cl)CCN1CC(F)(F)F [Compound 181, 5-chloro-4-[(3S)-3-methyl-4-(2,2,2-trifluoroethyl)piperazin-1-yl]-2-(4-pyridyl)-1H-pyrimidin-6-one]
 |  | 589 | 23.4 | O=c1[nH]c(-c2ccncc2)nc(N2CCN(CC3CCCC3)CC2)c1Cl [Compound 84]
 |  | 427 | 14.1 | CC1CCCN(c2nc(-c3ccncc3)[nH]c(=O)c2Cl)C1 (centres unmarked) [Compound 105]
 |  | 93.3 | 2.95 | C[C@H]1CN(c2nc(-c3ccncc3)[nH]c(=O)c2Cl)CCN1C(=O)C(F)(F)F [Compound 77, 5-chloro-4-[(3S)-3-methyl-4-(2,2,2-trifluoroacetyl)piperazin-1-yl]-2-(4-pyridyl)-1H-pyrimidin-6-one]
 |  | 692 | 19.1 | O=c1[nH]c(-c2ccncc2)nc(N2CC3C(C2)C3(F)F)c1Cl (centres unmarked) [Compound 134]
 |  | 79.4 | 2.95 | CC(C)(C)[C@H]1CN(c2nc(-c3ccncc3)[nH]c(=O)c2Cl)CCN1 [Compound 157]
 |  | 759 | 6.92 | O=c1[nH]c(-c2ccncc2)nc(N2CCOC(CCO)C2)c1Cl (centres unmarked) [Compound 94]
 |  | 603 | 12.6 | O=c1[nH]c(-c2ccncc2)nc(N2CCN(c3cccnc3)CC2)c1Cl [Compound 116]
 |  | 1150 | 29.5 | CC1CC(C)CN(c2nc(-c3ccncc3)[nH]c(=O)c2Cl)C1 (centres unmarked) [Compound 103]
 |  | 229 | 7.24 | O=c1[nH]c(-c2ccncc2)nc(N2CCN(CC(F)(F)F)CC2)c1Cl [Compound 146]
 |  | 3160 | 66.1 | O=c1[nH]c(-c2ccncc2)nc(N2CCOC(c3ccccc3)C2)c1Cl (centres unmarked) [Compound 91]
 |  | 224 | 9.33 | O=c1[nH]c(-c2ccncc2)nc(N2CCCC(CO)C2)c1Cl (centres unmarked) [Compound 123]
 |  | 33.9 | 1.95 | O=c1[nH]c(-c2ccncc2)nc(N2CCCC(F)(F)C2)c1Cl [Compound 132]
